Source: patent US5229371A, “Chemical modification of elsamicin A at the 3' and/or 4' OH groups” (Bristol-Myers Squibb Company, priority 1992, dated 1993)
In brackets after ≈: the same amount, converted by molar mass. Like-named read-outs stand apart in the source and are kept apart here.

Key:
leukemia P388 [1] = conditions: P388, in vitro; cited from earlier work
P388 leukemia = assay: In vivo antitumor activity against lymphocytic leukemia P388 in mice (Q1Dx3, ip); design: species or system mouse (female CDF1); conditions: for T/C % of MST: Q1D × 3, ip; for minimum effective dose (MED) compared with elsamicin A: T/C ≥125 significant
Protocol: (§1) In vivo antitumor activity of the above five derivatives was tested in the lymphocytic leukemia P388 and melanoma B16 systems. Female CDF1 (for P388) and male BDF1 (for B16) mice were inoculated by ip injection at 10^6 P388 cells and 0.5 ml of a 10% B16 brei per mouse, respectively (day 0).
(§2) The percent increase of median survival time (MST) of treated animals over that of untreated control animals was determined and reported as T/C %.

anaerobic bacteria = conditions: cited from earlier work
melanotic melanoma B16 [2] = conditions: B16, in vitro; cited from earlier work
lymphoid leukemia L1210 [3] = conditions: L1210, in vivo; cited from earlier work
melanotic melanoma B16 [4] = conditions: B16, in vivo; cited from earlier work
lymphoid leukemia L1210 [5] = conditions: L1210, in vitro; cited from earlier work
B16-F10 melanoma cells = assay: cells; conditions: Mus musculus, B16-F10, 72 h, read-out: Cytotoxicity IC50
Protocol: For in vitro cytotoxicity experiment, murine melanoma B16-F10 cells were grown and maintained in Eagle's minimum essential medium (Nissui), which contains kanamycin (60 μg/ml), supplemented with heat-inactivated fetal calf serum (10%) and non-essential amino acids (0.6%) at 37° C. under a humidified atmosphere in a 5% CO2 incubator. Exponentially growing B16-F10 cells were harvested, counted and suspended in the culture medium at the concentration of 2.0×10^4 cells/ml. The cell suspension (180 μl) was planted into wells of a 96-well microtiter plate and incubated for 24 hours. Test compound (20 μl) were added to the wells and the plates were further incubated for 72 hours. The cytotoxic activity was colorimetrically determined at 540 nm after staining viable cells with neutral red solution.

[6] = tested on: aerobic gram-positive bacteria; conditions: cited from earlier work
leukemia P388 [7] = conditions: P388, in vivo; cited from earlier work
B16 melanoma = assay: In vivo antitumor activity against B16 melanoma in mice (Q4Dx3, ip); design: species or system mouse (male BDF1); conditions: for T/C % of MST / No. of survivors/tested on day 50: Q4D × 3, ip
Protocol: as §1, §2

COC1C(N)C(OC2C(Oc3cccc4c(O)c5c(=O)oc6ccc(C)c7c(=O)oc(c34)c5c67)OC(C)C(O)C2(C)O)OC(C)C1O (stereo not shown) [Compound 1, Elsamicin A]
activity against murine tumor cells (leukemia P388 [1]): exerts activity | T/C % of MST (P388 leukemia; P388, 0.1 mg/kg/day): 123% | T/C % of MST (P388 leukemia; P388, 0.3 mg/kg/day): 140% | T/C % of MST (P388 leukemia; P388, 1 mg/kg/day): 155% | T/C % of MST (P388 leukemia; P388, 3 mg/kg/day): 180% | T/C % of MST (P388 leukemia; P388, 10 mg/kg/day): 190% | T/C % of MST (P388 leukemia; P388, 20 mg/kg/day): Tox | antibacterial activity (anaerobic bacteria): exhibits antibacterial activity | activity against murine tumor cells (melanotic melanoma B16 [2]): exerts activity | activity against murine tumor cells (lymphoid leukemia L1210 [3]): exerts activity | activity against murine tumor cells (melanotic melanoma B16 [4]): exerts activity | activity against murine tumor cells (lymphoid leukemia L1210 [5]): exerts activity | IC50 (B16-F10 melanoma cells): 0.03 µg/mL (≈ 0.0459 µM) | antibacterial activity [6]: exhibits antibacterial activity | activity against murine tumor cells (leukemia P388 [7]): exerts activity | T/C % of MST (B16 melanoma; B16, 0.1 mg/kg/day): 116% | T/C % of MST (B16 melanoma; B16, 0.3 mg/kg/day): 139% | T/C % of MST (B16 melanoma; B16, 1 mg/kg/day): 179% | No. of survivors/tested on day 50 (B16 melanoma; B16, 3 mg/kg/day): 2/12 | T/C % of MST (B16 melanoma; B16, 3 mg/kg/day): ≥ 216% | No. of survivors/tested on day 50 (B16 melanoma; B16, 10 mg/kg/day): 2/12 | T/C % of MST (B16 melanoma; B16, 10 mg/kg/day): ≥ 298%

COC1C(N)C(OC2C(Oc3cccc4c(O)c5c(=O)oc6ccc(C)c7c(=O)oc(c34)c5c67)OC(C)C3OC(C)(C)OC32C)OC(C)C1O (stereo not shown) [Compound 6a, 3',4'-O-Isopropylideneelsamicin A]
T/C % of MST (P388 leukemia; P388, 0.1 mg/kg/day): 120% | T/C % of MST (P388 leukemia; P388, 0.3 mg/kg/day): 140% | T/C % of MST (P388 leukemia; P388, 1 mg/kg/day): 170% | T/C % of MST (P388 leukemia; P388, 3 mg/kg/day): 210% | minimum effective dose (MED) compared with elsamicin A (P388 leukemia; P388 system): as active as the parent compounds | IC50 (B16-F10 melanoma cells): 0.025 µg/mL (≈ 0.036 µM) | T/C % of MST (B16 melanoma; B16, 0.1 mg/kg/day): 105% | T/C % of MST (B16 melanoma; B16, 0.3 mg/kg/day): 116% | T/C % of MST (B16 melanoma; B16, 1 mg/kg/day): 166% | T/C % of MST (B16 melanoma; B16, 3 mg/kg/day): 192% | T/C % of MST (B16 melanoma; B16, 10 mg/kg/day): 82%

COC1C(N)C(OC2C(Oc3cccc4c(O)c5c(=O)oc6ccc(C)c7c(=O)oc(c34)c5c67)OC(C)C3OC4(CCCCC4)OC32C)OC(C)C1O (stereo not shown) [Compound 6b, 3',4'-O-Cyclohexylideneelsamicin A]
T/C % of MST (P388 leukemia; P388, 0.3 mg/kg/day): 120% | T/C % of MST (P388 leukemia; P388, 1 mg/kg/day): 140% | T/C % of MST (P388 leukemia; P388, 3 mg/kg/day): 175% | T/C % of MST (P388 leukemia; P388, 10 mg/kg/day): 165% | IC50 (B16-F10 melanoma cells): 0.04 µg/mL (≈ 0.0545 µM) | T/C % of MST (B16 melanoma; B16, 0.3 mg/kg/day): 111% | T/C % of MST (B16 melanoma; B16, 1 mg/kg/day): 132% | T/C % of MST (B16 melanoma; B16, 3 mg/kg/day): 175% | T/C % of MST (B16 melanoma; B16, 10 mg/kg/day): 200%

COC1C(N)C(OC2C(Oc3cccc4c(O)c5c(=O)oc6ccc(C)c7c(=O)oc(c34)c5c67)OC(C)C3OC(c4ccccc4)OC32C)OC(C)C1O (stereo not shown) [Compound 6c, 3',4'-O-Benzylideneelsamicin A]
T/C % of MST (P388 leukemia; P388, 0.1 mg/kg/day): 110% | T/C % of MST (P388 leukemia; P388, 0.3 mg/kg/day): 130% | T/C % of MST (P388 leukemia; P388, 1 mg/kg/day): 150% | T/C % of MST (P388 leukemia; P388, 3 mg/kg/day): 165% | T/C % of MST (P388 leukemia; P388, 10 mg/kg/day): 180% | T/C % of MST (P388 leukemia; P388, 20 mg/kg/day): Tox | minimum effective dose (MED) compared with elsamicin A (P388 leukemia; P388 system): as active as the parent compounds | IC50 (B16-F10 melanoma cells): 0.07 µg/mL (≈ 0.0944 µM) | T/C % of MST (B16 melanoma; B16, 0.1 mg/kg/day): 121% | T/C % of MST (B16 melanoma; B16, 0.3 mg/kg/day): 114% | T/C % of MST (B16 melanoma; B16, 1 mg/kg/day): 136% | T/C % of MST (B16 melanoma; B16, 3 mg/kg/day): 179% | T/C % of MST (B16 melanoma; B16, 10 mg/kg/day): 186%

COC1OC2C(C)OC(Oc3cccc4c(O)c5c(=O)oc6ccc(C)c7c(=O)oc(c34)c5c67)C(OC3OC(C)C(O)C(OC)C3N)C2(C)O1 (stereo not shown) [Compound 6d, 3',4'-O-Methoxymethylideneelsamicin A]
T/C % of MST (P388 leukemia; P388, 0.1 mg/kg/day): 124% | T/C % of MST (P388 leukemia; P388, 0.3 mg/kg/day): 137% | T/C % of MST (P388 leukemia; P388, 1 mg/kg/day): 167% | T/C % of MST (P388 leukemia; P388, 3 mg/kg/day): 167% | T/C % of MST (P388 leukemia; P388, 10 mg/kg/day): 224% | T/C % of MST (P388 leukemia; P388, 20 mg/kg/day): Tox | minimum effective dose (MED) compared with elsamicin A (P388 leukemia; P388 system): as active as the parent compounds | IC50 (B16-F10 melanoma cells): 0.05 µg/mL (≈ 0.0719 µM) | T/C % of MST (B16 melanoma; B16, 0.1 mg/kg/day): 120% | T/C % of MST (B16 melanoma; B16, 0.3 mg/kg/day): 137% | T/C % of MST (B16 melanoma; B16, 1 mg/kg/day): 167% | T/C % of MST (B16 melanoma; B16, 3 mg/kg/day): 283% | No. of survivors/tested on day 50 (B16 melanoma; B16, 10 mg/kg/day): 3/4 | T/C % of MST (B16 melanoma; B16, 10 mg/kg/day): ≥ 333% | response / therapeutic activity (in words) (B16 melanoma; B16 system): extremely potent therapeutic activity | T/C % values compared with elsamicin A (1) (B16 melanoma; B16 system, 3 and 10 mg/kg/day): higher T/C % values

COC1C(N)C(OC2C(Oc3cccc4c(O)c5c(=O)oc6ccc(C)c7c(=O)oc(c34)c5c67)OC(C)C(OC3CCCCO3)C2(C)O)OC(C)C1O (stereo not shown) [Compound 8, 4'-O-Tetrahydropyranylelsamicin A]
T/C % of MST (P388 leukemia; P388, 0.1 mg/kg/day): 130% | T/C % of MST (P388 leukemia; P388, 0.3 mg/kg/day): 145% | T/C % of MST (P388 leukemia; P388, 1 mg/kg/day): 168% | T/C % of MST (P388 leukemia; P388, 3 mg/kg/day): 190% | T/C % of MST (P388 leukemia; P388, 10 mg/kg/day): 225% | T/C % of MST (P388 leukemia; P388, 20 mg/kg/day): Tox | T/C % values (in words) (P388 leukemia; P388 system): high T/C % values | minimum effective dose (MED) compared with elsamicin A (P388 leukemia; P388 system): three times more potent | IC50 (B16-F10 melanoma cells): 0.04 µg/mL (≈ 0.0542 µM) | T/C % of MST (B16 melanoma; B16, 0.1 mg/kg/day): 133% | T/C % of MST (B16 melanoma; B16, 0.3 mg/kg/day): 159% | T/C % of MST (B16 melanoma; B16, 1 mg/kg/day): 248% | No. of survivors/tested on day 50 (B16 melanoma; B16, 3 mg/kg/day): 1/4 | T/C % of MST (B16 melanoma; B16, 3 mg/kg/day): ≥ 281% | No. of survivors/tested on day 50 (B16 melanoma; B16, 10 mg/kg/day): 2/4 | T/C % of MST (B16 melanoma; B16, 10 mg/kg/day): ≥ 330% | No. of survivors/tested on day 50 (B16 melanoma; B16, 20 mg/kg/day): 3/4 | T/C % of MST (B16 melanoma; B16, 20 mg/kg/day): ≥ 370% | MED and T/C % values compared with elsamicin A (1) (B16 melanoma; B16 system): better than elsamicin A (1) | survivors on day 50 (in words) (B16 melanoma; B16 system, 3~20 mg/kg/day): Some survivors
